The record followed here is ChEMBL document CHEMBL1159286, “New secosteroids from an undescribed gorgonian of the genus Muricella” (J Nat Prod, 1995).

Data set [1] relates to Artemia. The data set can be described thus: Toxicity against brine shrimp larvae. It is filed as organism-based. The following applies: in vivo.
The test system of data set [2] is Human alphaherpesvirus 2. The data set can be described thus: Antiviral activity against HSV2. The data set is classed as functional, organism-based.
Data set [3] relates to Enterovirus C. The data set can be described thus: Antiviral activity against Poliovirus. The data set is classed as functional, organism-based.
Data set [4] concerns Human alphaherpesvirus 1. The data set can be described thus: Antiviral activity against HSV1. The data set is classed as functional, organism-based.

In brackets after ≈: the same amount, converted by molar mass. Some results are limits rather than exact numbers.

In data set [1], `Cc1ccc(O)cc1CC[C@@H]1C(=O)CC[C@]2(C)[C@@H]([C@H](C)CCCC(C)C)CC[C@@H]12` [CALICOFEROL E] displayed an LD50 greater than 100 ppm.
The same measure, in the same setting: the same measure for `Cc1ccc(O)cc1CC[C@@H]1[C@H](O)CC[C@]2(C)[C@@H]([C@H](C)CCCC(C)C)CC[C@@H]12` [ASTROGORGIADIOL]: greater than 100 ppm.
As a reminder, the EC50 is the concentration giving half of the maximal effect. Lower therefore signals a more potent agent. `Cc1ccc(O)cc1CC[C@@H]1C(=O)CC[C@]2(C)[C@@H]([C@H](C)/C=C/C(C)C(C)C)CC[C@@H]12` (some centres undefined) [CALICOFEROL D]: in data set [1], the LD50 is recorded as 37 ppm. For the same molecule, the EC50 was found to be 1.2 µg/mL (≈ 2.92 µM) in data set [2], 0.4 µg/mL (≈ 0.974 µM) in data set [3] and 1.2 µg/mL (≈ 2.92 µM) in data set [4].
`Cc1ccc(O)cc1CC[C@@H]1C(=O)CC[C@]2(C)[C@@H]([C@H](C)/C=C/CC(C)C)CC[C@@H]12` [CALICOFEROL A] came in with an LD50 in data set [1] of 1.8 ppm.
With `Cc1ccc(O)cc1CC[C@@H]1[C@H](O)CC[C@]2(C)[C@@H]([C@H](C)CCCC(C)C)[C@@H](O)C[C@@H]12` [CALICOFEROL B], the LD50 in data set [1] worked out at 2.3 ppm.
In data set [1], `C=C(CC[C@@H](C)[C@H]1CC[C@H]2[C@H](CCc3cc(O)ccc3C)[C@H](O)CC[C@]12C)C(C)C` [CALICOFEROL C] registered an LD50 greater than 100 ppm.
